Reference: US11149011B2, “Compounds and methods for IDO and TDO modulation, and indications therefor” (Plexxikon Inc., priority 2018, dated 2021)

Legend:
TDO = target: T1, TDO (Homo sapiens, UniProt P48775); assay: TDO enzymatic assay; details: geometric mean; read-out: TDO GMean: IC50 (μM) (Biochemical Assay)
T1 construct: His tag (N); made in house; host or cells: E. coli
Outline: (§1)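 N-His human enzymes from E. coli in 50 mM sodium phosphate pH 6.5 with ascorbate, catalase, Tween 20. IDO: 6 nM enzyme, 10 μM L-Trp, 5 μM methylene blue, 20 min RT; TDO: 1 nM enzyme, 350 μM L-Trp, 0.4 μM methylene blue, 70 min RT. TCA stop, kynurenine measured; IC50 by nonlinear regression.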

[1] = target: T2, IDO1-expressing HEK293 cell clones (Homo sapiens, UniProt P14902); assay: Cell based kynurenine assay, IDO1-expressing HEK293 cell clones; details: HEK293 cells, 24 hours of incubation, geometric mean; read-out: HEK293 IDO1 Kynurenine GMean IC50 (μM) (Cellular Assay)
T2 construct: expressed in transfected cells; host or cells: HEK293
T2 sequence (P14902 whole entry): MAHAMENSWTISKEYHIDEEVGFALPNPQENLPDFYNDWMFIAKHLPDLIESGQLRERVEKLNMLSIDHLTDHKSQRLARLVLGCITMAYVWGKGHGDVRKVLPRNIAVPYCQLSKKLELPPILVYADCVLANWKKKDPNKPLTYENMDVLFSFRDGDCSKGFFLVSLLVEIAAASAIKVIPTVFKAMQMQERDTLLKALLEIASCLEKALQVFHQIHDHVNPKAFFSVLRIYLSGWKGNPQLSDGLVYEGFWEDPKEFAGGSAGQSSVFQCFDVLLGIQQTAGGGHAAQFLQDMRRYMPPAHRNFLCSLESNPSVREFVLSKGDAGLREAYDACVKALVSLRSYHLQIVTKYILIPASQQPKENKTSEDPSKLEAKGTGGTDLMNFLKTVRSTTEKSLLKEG
Outline: (§2)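 HEK293 clones stably transfected with CMV-driven human IDO1 or human TDO were seeded at 2.5×10^4 cells/well and treated with serial compound dilutions for 24 hours. Supernatant kynurenine was measured. % inhibition versus DMSO-cell and media-only controls was fitted by nonlinear regression to give IC50.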

IDO1 = target: T3, IDO1 (Homo sapiens, UniProt P14902); assay: IDO enzymatic assay; format: biochemical; details: geometric mean; read-out: IDO1 GMean: IC50 (μM) (Biochemical Assay)
T3 construct: His tag (N); made in house; host or cells: E. coli
T3 sequence (P14902 whole entry): as above
Outline: as §1

[2] = target: T4, TDO-expressing HEK293 cell clones (Homo sapiens, UniProt P48775); assay: Cell based kynurenine assay, TDO-expressing HEK293 cell clones; details: HEK293 cells, 24 hours of incubation, geometric mean; read-out: HEK293 TDO Kynurenine GMean IC50 (μM) (Cellular Assay)
T4 construct: expressed in transfected cells; host or cells: HEK293
T4 sequence (P48775 whole entry): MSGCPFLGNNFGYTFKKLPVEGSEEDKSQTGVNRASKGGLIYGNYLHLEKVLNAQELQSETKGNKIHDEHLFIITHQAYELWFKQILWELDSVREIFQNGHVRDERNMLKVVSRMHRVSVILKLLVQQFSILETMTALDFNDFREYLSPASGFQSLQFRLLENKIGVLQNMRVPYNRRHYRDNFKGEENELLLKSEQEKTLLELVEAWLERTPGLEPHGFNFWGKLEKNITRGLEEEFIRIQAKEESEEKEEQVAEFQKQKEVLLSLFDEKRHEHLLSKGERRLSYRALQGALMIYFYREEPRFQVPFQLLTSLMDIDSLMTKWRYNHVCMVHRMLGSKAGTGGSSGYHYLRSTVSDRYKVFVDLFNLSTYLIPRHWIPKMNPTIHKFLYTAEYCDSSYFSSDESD
Outline: as §2

T1 sequence (P48775 whole entry): as above

| SMILES | IC50 (TDO) [µM] | IC50 [1] [µM] | IC50 (IDO1) [µM] | IC50 [2] [µM] |
| --- | --- | --- | --- | --- |
| N#CC1CCN(c2cc(Cl)cc3cn[nH]c23)CC1 [Compound P-0097, 1-(5-chloro-1H-indazol-7-yl)piperidine-4-carbonitrile] | 0.0001 to 10 | 0.0001 to 10 | 0.0001 to 10 | 0.0001 to 10 |
| CC(C)(C1CCN(C(=O)NCCCF)CC1)C(O)c1cc(Cl)cc2[nH]ncc12 (stereo not shown) [Compound P-0090, 4-(1-(6-chloro-1H-indazol-4-yl)-1-hydroxy-2-methylpropan-2-yl)-N-(3-fluoropropyl)piperidine-1-carboxamide] | 0.0001 to 10 | > 10 | 0.0001 to 10 | 0.0001 to 10 |
| CC(C)(C1CCN(C(=O)NOCC(F)(F)F)CC1)[C@H](O)c1cc(Cl)cc2cn[nH]c12 [Compound P-0065, (S)-4-(1-(5-chloro-1H-indazol-7-yl)-1-hydroxy-2-methylpropan-2-yl)-N-(2,2,2-trifluoroethoxy)piperidine-1-carboxamide] | 0.0001 to 10 | 0.0001 to 10 | 0.0001 to 10 | 0.0001 to 10 |
| CC(C)(C1CCN(S(=O)(=O)C2CC2)CC1)C(O)c1cc(Cl)cc2[nH]ncc12 (stereo not shown) [Compound P-0073, 1-(6-chloro-1H-indazol-4-yl)-2-(1-(cyclopropylsulfonyl)piperidin-4-yl)-2-methylpropan-1-ol] | 0.0001 to 10 | > 10 | 0.0001 to 10 | 0.0001 to 10 |
| CCS(=O)(=O)N1CCC(C(C)(C)[C@H](O)c2cc(Cl)cc3[nH]ncc23)CC1 [Compound P-0147, (S)-1-(6-chloro-1H-indazol-4-yl)-2-(1-(ethylsulfonyl)piperidin-4-yl)-2-methylpropan-1-ol] | 0.0001 to 10 | > 10 | 0.0001 to 10 | 0.0001 to 10 |
| CCNC(=O)N1CCC(C(F)(F)C(=O)c2c(F)c(Cl)cc3cn[nH]c23)CC1 [Compound P-0035, 4-(2-(5-chloro-6-fluoro-1H-indazol-7-yl)-1,1-difluoro-2-oxoethyl)-N-ethylpiperidine-1-carboxamide] | 0.0001 to 10 | 0.0001 to 10 | 0.0001 to 10 | 0.0001 to 10 |
| CC(C)(C1CCN(C(=O)NC2CCOCC2)CC1)C(O)c1cc(Cl)cc2[nH]ncc12 (stereo not shown) [Compound P-0079, 4-(1-(6-chloro-1H-indazol-4-yl)-1-hydroxy-2-methylpropan-2-yl)-N-(tetrahydro-2H-pyran-4-yl)piperidine-1-carboxamide] | 0.0001 to 10 | 0.0001 to 10 | 0.0001 to 10 | 0.0001 to 10 |
| CN(C)CCONC(=O)N1CCC(C(C)(C)[C@H](O)c2cc(Cl)cc3cn[nH]c23)CC1 [Compound P-0063, (S)-4-(1-(5-chloro-1H-indazol-7-yl)-1-hydroxy-2-methylpropan-2-yl)-N-(2-(dimethylamino)ethoxy)piperidine-1-carboxamide] | 0.0001 to 10 | 0.0001 to 10 | 0.0001 to 10 | 0.0001 to 10 |
| [2H]C([2H])([2H])C(C1CCN(C(=O)CO)CC1)(C(O)c1cc(Cl)cc2cn[nH]c12)C([2H])([2H])[2H] (stereo not shown) [Compound P-0143, 1-(4-(2-((5-chloro-1H-indazol-7-yl)(hydroxy)methyl)propan-2-yl-1,1,1,3,3,3-d6)piperidin-1-yl)-2-hydroxyethan-1-one] | 0.0001 to 10 | 0.0001 to 10 | 0.0001 to 10 | 0.0001 to 10 |
| CC(C)(C1CCN(C(=O)C2CCOCC2)CC1)C(O)c1cc(Cl)cc2[nH]ncc12 (stereo not shown) [Compound P-0048, (4-(1-(6-chloro-1H-indazol-4-yl)-1-hydroxy-2-methylpropan-2-yl)piperidin-1-yl)(tetrahydro-2H-pyran-4-yl)methanone] | 0.0001 to 10 | 0.0001 to 10 | 0.0001 to 10 | 0.0001 to 10 |
| CS(=O)(=O)N1CC=C(c2cc(Cl)cc3cn[nH]c23)CC1 [Compound P-0098, 5-chloro-7-(1-(methylsulfonyl)-1,2,3,6-tetrahydropyridin-4-yl)-1H-indazole] | 0.0001 to 10 | 0.0001 to 10 | 0.0001 to 10 | 0.0001 to 10 |
| CNC(=O)CNC(=O)N1CCC(C(C)(C)C(O)c2cc(Cl)cc3[nH]ncc23)CC1 (stereo not shown) [Compound P-0089, 4-(1-(6-chloro-1H-indazol-4-yl)-1-hydroxy-2-methylpropan-2-yl)-N-(2-(methylamino)-2-oxoethyl)piperidine-1-carboxamide] | 0.0001 to 10 | 0.0001 to 10 | 0.0001 to 10 | 0.0001 to 10 |
| CC(C)(C1CCN(C(=O)NCCC(F)(F)F)CC1)C(O)c1cc(Cl)cc2[nH]ncc12 (stereo not shown) [Compound P-0086, 4-(1-(6-chloro-1H-indazol-4-yl)-1-hydroxy-2-methylpropan-2-yl)-N-(3,3,3-trifluoropropyl)piperidine-1-carboxamide] | 0.0001 to 10 | 0.0001 to 10 | 0.0001 to 10 | 0.0001 to 10 |
| CC(C)(C1CCN(C(=O)N[C@H]2CCC[C@@H]2O)CC1)[C@H](O)c1cc(Cl)cc2cn[nH]c12 [Compound P-0024, 4-((S)-1-(5-chloro-1H-indazol-7-yl)-1-hydroxy-2-methylpropan-2-yl)-N-((1S,2S)-2-hydroxycyclopentyl)piperidine-1-carboxamide] | 0.0001 to 10 | 0.0001 to 10 | 0.0001 to 10 | 0.0001 to 10 |

Now from value to compound:

| IC50 (TDO) [µM] | IC50 [1] [µM] | IC50 (IDO1) [µM] | IC50 [2] [µM] | SMILES |
| --- | --- | --- | --- | --- |
| 0.0001 to 10 | 0.0001 to 10 | 0.0001 to 10 | 0.0001 to 10 | CC(C)(C1CCN(C(=O)NCC2(O)CCC2)CC1)[C@H](O)c1cc(Cl)cc2cn[nH]c12 [Compound P-0029, (S)-4-(1-(5-chloro-1H-indazol-7-yl)-1-hydroxy-2-methylpropan-2-yl)-N-((1-hydroxycyclobutyl)methyl)piperidine-1-carboxamide] |
| 0.0001 to 10 | 0.0001 to 10 | 0.0001 to 10 | 0.0001 to 10 | CC(C)(C1CCN(C(=O)N[C@@H]2CCOC2)CC1)C(O)c1cc(Cl)cc2[nH]ncc12 (stereo partly drawn) [Compound P-0113, 4-(1-(6-chloro-1H-indazol-4-yl)-1-hydroxy-2-methylpropan-2-yl)-N-((R)-tetrahydrofuran-3-yl)piperidine-1-carboxamide] |
| 0.0001 to 10 | 0.0001 to 10 | 0.0001 to 10 | 0.0001 to 10 | CC(C)(C1CCN(C(=O)NO)CC1)[C@H](O)c1cc(Cl)cc2cn[nH]c12 [Compound P-0122, (S)-4-(1-(5-chloro-1H-indazol-7-yl)-1-hydroxy-2-methylpropan-2-yl)-N-hydroxypiperidine-1-carboxamide] |
| 0.0001 to 10 | > 10 | 0.0001 to 10 | 0.0001 to 10 | CC(C)(C1CCN(C(=O)Nc2cccnc2)CC1)C(O)c1cc(Cl)cc2[nH]ncc12 (stereo not shown) [Compound P-0075, 4-(1-(6-chloro-1H-indazol-4-yl)-1-hydroxy-2-methylpropan-2-yl)-N-(pyridin-3-yl)piperidine-1-carboxamide] |
| 0.0001 to 10 | 0.0001 to 10 | 0.0001 to 10 | 0.0001 to 10 | CC(C)(O)C(=O)N1CCC(C(C)(C)[C@H](O)c2cc(Cl)cc3cn[nH]c23)CC1 [Compound P-0132, (S)-1-(4-(1-(5-chloro-1H-indazol-7-yl)-1-hydroxy-2-methylpropan-2-yl)piperidin-1-yl)-2-hydroxy-2-methylpropan-1-one] |
| 0.0001 to 10 | 0.0001 to 10 | 0.0001 to 10 | > 10 | N#CCC(=O)N1CCC(C(F)(F)C(=O)c2c(F)c(Cl)cc3cn[nH]c23)CC1 [Compound P-0033, 3-(4-(2-(5-chloro-6-fluoro-1H-indazol-7-yl)-1,1-difluoro-2-oxoethyl)piperidin-1-yl)-3-oxopropanenitrile] |
| 0.0001 to 10 | 0.0001 to 10 | 0.0001 to 10 | 0.0001 to 10 | C[C@@H](NC(=O)N1CCC(C(C)(C)[C@H](O)c2cc(Cl)cc3cn[nH]c23)CC1)c1ccccn1 [Compound P-0028, 4-((S)-1-(5-chloro-1H-indazol-7-yl)-1-hydroxy-2-methylpropan-2-yl)-N-((R)-1-(pyridin-2-yl)ethyl)piperidine-1-carboxamide] |
| 0.0001 to 10 | 0.0001 to 10 | 0.0001 to 10 | 0.0001 to 10 | CC(C)(C1CCN(C(=O)NOc2ccccc2)CC1)[C@H](O)c1cc(Cl)cc2cn[nH]c12 [Compound P-0066, (S)-4-(1-(5-chloro-1H-indazol-7-yl)-1-hydroxy-2-methylpropan-2-yl)-N-phenoxypiperidine-1-carboxamide] |
| 0.0001 to 10 | 0.0001 to 10 | 0.0001 to 10 | 0.0001 to 10 | OC1(c2cc(Cl)cc3cn[nH]c23)CCC(F)(F)CC1 [Compound P-0008, 1-(5-chloro-1H-indazol-7-yl)-4,4-difluorocyclohexan-1-ol] |
| 0.0001 to 10 | 0.0001 to 10 | 0.0001 to 10 | 0.0001 to 10 | CC(C)(C1CCN(C(=O)NCc2cncnc2)CC1)[C@H](O)c1cc(Cl)cc2cn[nH]c12 [Compound P-0026, (S)-4-(1-(5-chloro-1H-indazol-7-yl)-1-hydroxy-2-methylpropan-2-yl)-N-(pyrimidin-5-ylmethyl)piperidine-1-carboxamide] |
| 0.0001 to 10 | 0.0001 to 10 | 0.0001 to 10 | 0.0001 to 10 | CC(C)(C1CCN(C(=O)CC#N)CC1)C(O)c1cc(Cl)cc2[nH]ncc12 (stereo not shown) [Compound P-0047, 3-(4-(1-(6-chloro-1H-indazol-4-yl)-1-hydroxy-2-methylpropan-2-yl)piperidin-1-yl)-3-oxopropanenitrile] |
